Assay results from paper PMC4633953, “FR171456 is a specific inhibitor of mammalian NSDHL and yeast Erg26p” (Nature Communications, 2015).

Key:
Erg26p [1] = target: T1, Erg26p (Saccharomyces cerevisiae, UniProt P53199); conditions: wild-type yeast Erg26p ref 32; cited from earlier work
T1 sequence (P53199 1-349): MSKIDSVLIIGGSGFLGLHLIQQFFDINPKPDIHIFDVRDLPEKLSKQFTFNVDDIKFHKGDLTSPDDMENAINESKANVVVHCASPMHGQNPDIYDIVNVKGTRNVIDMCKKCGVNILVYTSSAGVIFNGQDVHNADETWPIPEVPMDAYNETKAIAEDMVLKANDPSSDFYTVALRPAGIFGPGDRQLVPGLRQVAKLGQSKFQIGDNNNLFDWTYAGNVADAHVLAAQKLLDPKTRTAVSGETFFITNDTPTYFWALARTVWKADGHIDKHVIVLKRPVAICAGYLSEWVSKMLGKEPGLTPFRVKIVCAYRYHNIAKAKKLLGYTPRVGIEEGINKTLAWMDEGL

F. solani = test: Combination with clinical antifungal agents (Loewe synergy, growth by OD530); format: cell-based; conditions: in presence of FR171456 6.67 and 20 μM
Description: incubated for 24 h in increasing combined doses of FR171456 and Amphotericin B, and growth
assessed by OD530. (a) Normalised growth rates plotted as % inhibition of growth. (b) Loewe excess
heat map showing difference between predicted scores based upon the addition of each agent
alone and the actual values detected plotted as difference in % of inhibition. (c) Loewe isobologram
- a comparison of the doses of each compound needed to achieve 50% inhibition of proliferation.

[2] = tested on: S. cerevisiae (BY4743 strain); test: Yeast growth inhibition dose response (OD600); format: cell-based; conditions: Saccharomyces cerevisiae, 14 h, BY4743, 14 h, 30 °C, YPD, 2% DMSO
Description: Figure 2 FR171456 targets Erg26p in S. cerevisiae. (a) Structures of FR171456, and two related triterpenes (compound 1, compound 2). (b) Duplicate 12-point Dose response curves of wild-type diploid yeast with three compounds in a. Strain BY4743 was grown for 14 h at 30 °C in YPD media with 2% DMSO containing a dilution series of FR171456: black; Compound-1: light grey circles, and Compound-2: light grey squares. Y axis: OD600 absorbance indicating yeast growth, x axis: compound concentrations (log10 μM). (c) Haploinsufficiency and homozygous profiling (HIP resp. HOP) for FR171456 at 4 μM. Each mutant strain in the pool is represented by a circle (non-essential genes) or a square (essential genes). The, y axis represents strain sensitivity and x axis represents z-score (specificity). In (d), the z-scores of the HIP pool strains (y axis) plotted against increasing doses of FR171456 (x axis; μM). (e) Relative compound sensitivity profile of the erg26Δ/ERG26 strain across HIP experiments performed with 1,800 diverse small molecule yeast proliferation inhibitors. TEXT PRINTED IN THE PICTURE: (a) FR171456: MW 516.68; S.c. […] IC50 >200 μM | (a) Compound 2: MW 532.68; S.c. IC50 >200 μM

Erg26p [3] = target: T1, Erg26p; test: In vitro microsomal Erg26p activity assay (GC-MS)
Description: To test this hypothesis an in vitro microsomal Erg26p activity assay[30] was used. Erg26p activity was directly assessed in the presence of increasing concentrations of FR171456 (10 nM–0.1 mM) in the presence of 150 μM carboxysterol substrate (Fig. 1c) and the cofactor NAD^+ (0.5 mM) followed by GC-MS detection of the product 4α-methyl-cholest-8,24-dien-3-one.
Wild-type yeast (FL200) microsomes were prepared as follows. Yeast cells were disrupted by glass bead homogenization (0.45-mm diameter) in 100 mM phosphate buffer (pH 7.5) containing 1.5 mM reduced glutathione and 30 mM nicotinamide for 8 min at 0 °C[44]. The cell extract was obtained by centrifugation at 10,000 × g for 20 min. Microsomes were then isolated by centrifuging the cell extract supernatant at 100,000 × g for 90 min. The resulting microsomal pellet was resuspended in 100 mM phosphate buffer (pH 7.5) containing 3 mM reduced glutathione and 20% glycerol (v/v) using an Elvehjem–Potter homogenizer. Yeast microsomes (1.2 mg of protein) were incubated in the presence of 4α-carboxy-4β-methyl-cholest-8,24-dien-3β-ol (50–300 mM) and NAD^+ (0.5 mM) for 35–45 min at 30 °C. After addition of coprostanone (2–6 μg) as internal standard, the reactions were extracted as described previously[12]. The extract was analysed by TLC on silica gel and eluted twice with CH2Cl2. The fraction migrating between a standard of 4-desmethyl-sterone (RF= 0.50) and 4,4-dimethyl-sterone (RF=0.70) was eluted and analysed using a GC-MS spectrometer (Agilent 5973 N).
In the case of inhibition assays, microsomes were incubated for 35–45 min at 30 °C in the presence of 4α-carboxy-4β-methyl-cholest-8,24-dien-3β-ol (50–300 mM) and a range of inhibitor concentration (0.01–100 μM) from which a dose–response curve was obtained allowing the corresponding I50 values to be determined.
The GC-MS spectrometer (Agilent 5973 N) was equipped with an ‘on column' injector and a capillary column (30 × 0.25 mm) coated with DB5 (H2 flow rate of 2 ml min^−1). The temperature program included a 30 °C min^−1 increase from 60 °C to 240 °C, and followed by a 2 °C/min increase from 240 °C to 280 °C. The areas of the GC peaks of coprostanone (tR=1.000) and of the produced 4α-methyl-cholest-8,24-dien-3-one (tR=1.139), corrected from endogenous component of the same tR (1.139) determined in the blank (boiled microsomes), allowed the rate of transformation of 4α-carboxy-4β-methyl-cholest-8,24-dien-3β-ol to be measured. Under these conditions, the estimated limit of detection of the 3βHSD/D activity was 0.1 nmol h^−1 mg^−1.

[4] = tested on: ergosterol pathway intermediates in C. albicans SC5314; test: Focused metabolomics: 13C-labelled ergosterol pathway intermediates in C. albicans; format: cell-based; conditions: increasing doses
Description: For ^13C- labelling studies, the wild type C. albicans strain SC5314 was obtained from ATCC (Manassas, VA) and was cultured at 30 °C in YPD broth (1% yeast extract, 2% peptone, 2% dextrose) or Synthetic Medium (3% glycerol, 0.1% glucose, 65 mM NH4Cl, 1.7 mM NaCl, 7 mM KH2PO4, 1 mM CaCl2, 0.5 mM MgSO4).
Approximately 1.25 × 10^8 C. albicans cells from a saturated YPD culture were inoculated into 100 ml Synthetic Medium (SM) and grown at 30 °C to an OD of 1.0. Cells were washed once in modified SM (25 mM KPO4 pH 7.0, with glucose omitted) and suspended to 5 OD600 units per ml in modified SM.
Labelling reactions were performed in 12-ml glass tubes with PTFE-lined caps (Corning) and containing 1 ml cell suspension (∼6 × 10^7 cells), 10 μl DMSO or 10 μl compound dissolved in DMSO, 12 μl 1M D-Glucose (U^-13C6 glucose), and 10 μl 1 M (1,2^-13C2) sodium acetate (Cambridge Isotope Laboratories, Inc). Before LC-MS analysis, dried lipid extracts were dissolved in 500 μl methanol, vortexed and sonicated for 10 min.
Squalene, ergosterol, lanosterol and zymosterol were quantified using the tandem mass spectrometer API4000 triple quadrupole (AB Sciex) with atmospheric pressure chemical ionization (APCI), interfaced to an Agilent LC.
Cells (∼6 × 10^7) and compounds were preincubated 15 min at 30 °C (without shaking) before the addition of labelled substrates. Labelling was performed at 30 °C with shaking for 4 h. Reactions were stopped by adding 1 ml 30% KOH, 1 ml 100% ethanol, and 0.2 ml 2% pyrogallol. Samples were mixed and then heated at 80 °C for 30 min, then cooled to room temperature. Non-saponifiable lipids were extracted two times in petroleum ether, washed with water, dried under nitrogen gas and stored at −80 °C.
For compound calibration, 2 μM solutions in 0.1% formic acid were directly infused into the mass spectrometer. Ergosterol, lanosterol and zymosterol undergo dehydration and their molecular species are detected as [M+H-H2O]^+ while squalene is detected as [M+H]^+. Supplementary Table 4 lists the multiple reaction monitoring parameters of the sterols and squalene, as well as the ^13C incorporated metabolites. The mass spectrometer source parameters are the following: CUR=40, GS1=60, NC=4.5. TEM=450 CAD=4. A mobile phase of 0.2% formic acid in methanol and isocratic run at 0.4 ml min^−1 was employed to separate the metabolites on a Waters XBridge C18 3.5 μm 2.1 × 50 mm column. The run time was 4.5 min.

Structure (SMILES): CC(C)=CCC[C@@H](C)[C@H]1CC[C@H]2C3=C(CC[C@]12C)[C@@]1(C)CC[C@H](O)[C@@](C)(C(=O)O)C1CC3 (stereo partly drawn) [carboxysterol substrate, 4α-carboxy-4β-methyl-cholest-8,24-dien-3β-ol]
- Km (Erg26p [1]): 550 µM

Structure (SMILES): C[C@@H]1[C@H](O)[C@@H](C)/C=C/C=C/C=C/C=C/C=C/C=C/C=C/[C@H](O[C@@H]2O[C@H](C)[C@@H](O)[C@H](N)[C@@H]2O)C[C@@H]2O[C@](O)(C[C@@H](O)C[C@@H](O)[C@H](O)CC[C@@H](O)C[C@@H](O)CC(=O)O[C@H]1C)C[C@H](O)[C@H]2C(=O)O [Amphotericin B, reference compound]
- amount of Amphotericin B required for maximal inhibition (F. solani): halved

Structure (SMILES): C=C(CCC(C)C1CCC2C1(C)CC(O)C13CC14C(=O)CC(O)C(C)(C(=O)NCc1ccccc1)C4C(=O)CC23O)C(C)C [Compound 1, (1R,2aR,3R,5aR,5bS,7aR,8S,9S,11aS,12aR)-N-benzyl-1,5b,9-trihydroxy-2a,8-dimethyl-3-((R)-6-methyl-5-methyleneheptan-2-yl)-7,11-dioxohexadecahydrocyclopenta[a]cyclopropa[e]phenanthrene-8-carboxamide]
- IC50 [2]: > 200 µM
- IC50 (Erg26p [3]): > 500 µM
- decrease of inhibition relative to FR171456 (Erg26p [3]): > 300 fold

Structure (SMILES): OC(Cn1cncn1)(Cn1cncn1)c1ccc(F)cc1F [fluconazole, reference compound]
- effect on 13C-labelled ergosterol [4]: decrease
- effect on 13C-labelled lanosterol [4]: accumulation
- effect on 13C-labelled zymosterol [4]: decrease

Structure (SMILES): C=C(CCC(C)C1CCC2C1(C)CC(O)C13CC14C(=O)CC(O)C(C)(C(=O)O)C4C(=O)CC23O)C(C)CO [Compound 2, (1R,2aR,3R,5aR,5bS,7aR,8S,9S,11aS,12aR)-1,5b,9-trihydroxy-3-((2R)-7-hydroxy-6-methyl-5-methyleneheptan-2-yl)-2a,8-dimethyl-7,11-dioxohexadecahydrocyclopenta[a]cyclopropa[e]phenanthrene-8-carboxylic acid]
- IC50 [2]: > 200 µM
